Laboratory results taken from patent US4088772A, “Methanodibenzocycloheptapyrroles” (E. I. Du Pont de Nemours and Company, priority 1975, dated 1978).
Read-outs that look alike come from different tables or passages of the source.

Key:
in vivo = conditions: mouse, in vivo, po
female white mice = test: animal or person; conditions: Mus musculus, po
[1] = test system: phenylquinone-induced writhing; test: Phenylquinone writhing test (analgesia); format: in vivo, mouse (Carworth CF1 S female); conditions: Mus musculus, po, Table 1, mice
From the text: This mouse test is predictive of analgesic response in humans. [E. Siegmund, R. Cadmus and G. Lee, Proc. Soc.
ED50 values were obtained graphically from the data.

[2] = read-out: Catatonia ED50, Table 1, oral, mice
[3] = read-out: Exploratory Loss Visual ED50, Table 1, oral, mice
[4] = read-out: Muscle Tone ED50, Table 1, oral, mice
[5] = read-out: Ptosis ED50, Table 1, oral, mice
[6] = read-out: Reflexes Grip ED50, Table 1, oral, mice
[7] = read-out: Reflexes Lift ED50, Table 1, oral, mice
[8] = read-out: Reflexes Pinna ED50, Table 1, oral, mice

SMILES	ED50 (in vivo) [mg/kg]	LD50 at 24 h (in vivo) [mg/kg]	ED50 (female white mice; [2]) [mg/kg]	ED50 (female white mice; [3]) [mg/kg]	ED50 (female white mice; [4]) [mg/kg]	ED50 (female white mice; [5]) [mg/kg]	ED50 (female white mice; [6]) [mg/kg]	ED50 (female white mice; [7]) [mg/kg]	ED50 (female white mice; [8]) [mg/kg]	ED50 [1] [mg/kg]	ED50 (female white mice; read-out: Ptosis ED50, Table 1, Extrapolated value) [mg/kg]
C=C1CC(CN2CC3c4ccccc4C4CC3(C2)c2ccccc24)C1 (stereo not drawn) [Example 20, 2-(3-Methylenecyclobutylmethyl)-2,3,8,12b-tetrahydro-1H-3a,8-methanodibenzo[3,4:6,7]cyclohepta[1,2-c]pyrrole]	> 324	> 324	13	21	15	11	362	21	24	8.2	–
C1=C(CN2CC3c4ccccc4C4CC3(C2)c2ccccc24)CCC1 (stereo not drawn) [Example 21, 2-(1-Cyclopentenylmethyl)-2,3,8,12b-tetrahydro-1H-3a,8-methanodibenzo[3,4:6,7]cyclohepta[1,2-c]pyrrole]	> 324	> 324	20	7	36	7	300	36	20	2.9	–
c1ccc2c(c1)C1CC3(CN(CCC4CCCC4)CC23)c2ccccc21 (stereo not drawn) [Example 22, 2-(2-Cyclopentylethyl)-2,3,8,12b-tetrahydro-1H-3a,8-methanodibenzo[3,4:6,7]cyclohepta[1,2-c]pyrrole]	> 324	> 324	18	32	3.6	–	265	17	11	10	3
C1=CC(CCN2CC3c4ccccc4C4CC3(C2)c2ccccc24)CC1 (stereo not drawn) [Example 23, 2-(2-Cyclopent-2-enylethyl)-2,3,8,12b-tetrahydro-1H-3a,8-methanodibenzo[3,4:6,7]cyclohepta[1,2-c]pyrrole]	> 324	> 324	37	57	37	46	265	88	62	15	–
c1ccc2c(c1)C1CC3(CN(CCCC4CCCC4)CC23)c2ccccc21 (stereo not drawn) [Example 24, 2-(3-Cyclopentylpropyl)-2,3,8,12b-tetrahydro-1H-3a,8-methanodibenzo[3,4:6,7]cyclohepta[1,2-c]pyrrole]	> 324	> 324	7	7	–	–	> 324	17	17	6	–
C1=CCC(CN2CC3c4ccccc4C4CC3(C2)c2ccccc24)=CC1 (stereo not drawn) [Example 28, 2-(1,4-Cyclohexadienylmethyl)-2,3,8,12b-tetrahydro-1H-3a,8-methanodibenzo[3,4:6,7]cyclohepta[1,2-c]pyrrole]	> 324	> 324	24	29	37	17	> 324	57	32	8.6	–
c1ccc2c(c1)C1CC3(CN(CCC4CCCCC4)CC23)c2ccccc21 (stereo not drawn) [Example 29, 2-(2-Cyclohexylethyl)-2,3,8,12b-tetrahydro-1H-3a,8-methanodibenzo[3,4:6,7]cyclohepta[1,2-c]pyrrole]	> 324	> 324	21	24	24	17	290	78	50	28	–
c1ccc2c(c1)C1CC3(CN(CCCC4CCCCC4)CC23)c2ccccc21 (stereo not drawn) [Example 30, 2-(3-Cyclohexylpropyl)-2,3,8,12b-tetrahydro-1H-3a,8-methanodibenzo[3,4:6,7]cyclohepta[1,2-c]pyrrole]	> 324	> 324	12	4	–	4	200	12	–	7	–
c1ccc2c(c1)C1CC3(CN(CCCCC4CCCCC4)CC23)c2ccccc21 (stereo not drawn) [Example 31, 2-(4-Cyclohexylbutyl)-2,3,8,12b-tetrahydro-1H-3a,8-methanodibenzo[3,4:6,7]cyclohepta[1,2-c]pyrrole]	> 324	> 324	26	21	24	17	> 324	37	32	14	–
c1ccc2c(c1)C1CC3(CN(CC4CCCCCC4)CC23)c2ccccc21 (stereo not drawn) [Example 32, 2-Cycloheptylmethyl-2,3,8,12b-tetrahydro-1H-3a,8-methanodibenzo[3,4:6,7]cyclohepta[1,2-c]pyrrole]	> 324	> 324	12	7	36	< 4	200	20	60	2.9	–
